Assay in all cases: phosphate release assay (EnzChek phosphate kit)
What all share (conditions): partially purified leaf extract; 100 mM MOPS, 1 mM MgCl2, 10% glycerol, 2 mM sodium molybdate, 200 mM NaF; glyphosate 0-1000 μM; range is 95% CI; read-out: I50(μM)(95% CI)^a

Test [1] deals with T1, EPSPS (A. sterilis UE accession).
T1 construct: homeologous copies not distinguished
It is filed as biochemical, Avena sterilis. From the text: phosphate release assay (EnzChek phosphate kit) on EPSPS (A. sterilis UE accession)

The target of test [2] is T2, EPSPS (L. rigidum S population) (Lolium rigidum, UniProt A0A5B9T5S8).
T2 sequence (A0A5B9T5S8 61-505): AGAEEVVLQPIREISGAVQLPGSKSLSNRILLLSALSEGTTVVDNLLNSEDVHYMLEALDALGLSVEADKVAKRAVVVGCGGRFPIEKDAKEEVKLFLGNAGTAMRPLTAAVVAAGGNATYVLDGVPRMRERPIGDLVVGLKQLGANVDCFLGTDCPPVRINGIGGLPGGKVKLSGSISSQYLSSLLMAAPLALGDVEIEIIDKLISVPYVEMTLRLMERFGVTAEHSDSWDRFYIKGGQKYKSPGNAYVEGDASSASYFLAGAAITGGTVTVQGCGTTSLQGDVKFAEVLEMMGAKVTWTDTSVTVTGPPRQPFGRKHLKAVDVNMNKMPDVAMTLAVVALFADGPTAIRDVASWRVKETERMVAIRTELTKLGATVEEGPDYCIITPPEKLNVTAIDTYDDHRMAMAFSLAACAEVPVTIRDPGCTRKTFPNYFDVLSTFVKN
It is filed as biochemical. From the text:
phosphate release assay (EnzChek phosphate kit) on EPSPS (L. rigidum S population)

Test [3] has as its system T3, EPSPS (A. sterilis E accession).
T3 construct: homeologous copies not distinguished
The test is classed as biochemical, Avena sterilis. From the text: phosphate release assay (EnzChek phosphate kit) on EPSPS (A. sterilis E accession)

With `O=C(O)CNCP(=O)(O)O` [glyphosate], the IC50 in test [1] was determined as 42.4 µM; in test [2] it was 5.1 µM; in test [3], 53.5 µM.
